{"source": "paper PMC10714400", "about": "“Antimicrobial Peptide–Peptoid Hybrids with and without Membrane Disruption” (ACS Infectious Diseases, 2023)", "key": {"[1]": {"tested_on": "PA14 4.13 (phoQ)", "in_short": "(§1)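 MICs were determined by broth microdilution in MH medium, with approximately 5 × 10^5 CFU added per well and plates held at 37 °C for about 18 h without shaking.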"}, "[2]": {"tested_on": "ZEM-1A (clinical MDR P. aeruginosa isolate)", "in_short": "as §1"}, "[3]": {"tested_on": "PA14 2P4 (pmrB)", "in_short": "as §1"}, "[4]": {"tested_on": "PA14 4.18 (pmrB)", "in_short": "as §1"}, "[5]": {"tested_on": "P. aeruginosa PAO1", "in_short": "as §1"}, "[6]": {"tested_on": "E. coli W3110", "in_short": "as §1"}, "[7]": {"tested_on": "K. pneumoniae NCTC418", "in_short": "(§2)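 MTT added (20–30 min, room temperature); MIC read by eye as lowest concentration inhibiting visible growth (yellow). Polymyxin B positive control from 16 μg/mL.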"}, "[8]": {"tested_on": "K. pneumoniae OXA-48", "in_short": "as §1"}, "[9]": {"tested_on": "A. baumannii ATCC19606", "in_short": "as §2"}, "[10]": {"tested_on": "S. aureus COL (MRSA)", "in_short": "as §1"}, "[11]": {"tested_on": "ZEM9A (clinical MDR P. aeruginosa isolate)", "in_short": "as §1"}, "[12]": {"tested_on": "E. cloacae", "conditions": "pH 7.4", "in_short": "as §1"}, "[13]": {"tested_on": "S. aureus Newman", "conditions": "Newman", "in_short": "as §1"}, "[14]": {"tested_on": "HEK293 cells", "experiment": "Cell viability assay by Alamar blue", "conditions": "read-out: Toxicity on HEK293 cells; CSV", "experimental": "The data are represented as the mean value ± SD, n = 3. […] (c) Vesicle leakage assay for a selection of compounds. Lipid vesicles made of EYPG or EYPC were suspended in a buffer (10 mM TRIS, 107 mM NaCl, pH 7.4). After 45 s, the indicated compound was added to reach the desired concentration. After 240 s, 30 μL of 1.2% TritonX-100 was added for full fluorescein release. […] See Supporting Information for the full curves, all of the data, and procedures.\nHEK293 cells were cultured and maintained in DMEM high glucose (Dulbecco’s modified Eagle medium, Sigma Aldrich) medium supplemented with 10% FBS (Sigma Aldrich) and 1% penicillin/streptomycin. A549 cells were cultured and maintained in RPMI-1640 medium (Sigma Aldrich), supplemented with 10% FBS (Sigma Aldrich) and 1% penicillin/streptomycin. The cells were handled and subcultured according to the manufacturer instructions. Cells were incubated in a humidified incubator at 37 °C in the presence of 5% CO2.\nAssays on HEK293, A549 cells were performed as described earlier.[74] […]"}}, "note": "Read-outs that look alike come from different tables or passages of the source. Where a SMILES comes first, the peptide text is derived from it. [ ]: non-standard residue; d: D form. Nleu = CC(C)CNCC(=O)O; Nlys = NCCCCNCC(=O)O", "data": [{"smiles": "CC(C)C[C@H](NC(=O)[C@H](CCCCN)NC(=O)CNCCCCN)C(=O)N[C@@H](CC(C)C)C(=O)N[C@@H](CCCCN)C(=O)N[C@@H](CC(C)C)C(=O)N[C@@H](CC(C)C)C(=O)N[C@@H](CCCCN)C(=O)N[C@@H](CC(C)C)C(=O)N[C@@H](CC(C)C)C(=O)N(CC(N)=O)CC(C)C", "note": "[EB1] (H-[Nlys]KLLKLLKLL[Nleu]-NH2; N-terminus assumed)", "values": [{"measurement": "MIC P. aeruginosa PA14 4.13, […] MH at pH 8.5", "setting": "[1]; CSV, […] MH at pH 8.5", "result": 2, "unit": "ug/mL"}, {"measurement": "MIC P. aeruginosa PA14 4.13, full MH at pH 7.4", "setting": "[1]; CSV, full MH at pH 7.4", "result": 8, "unit": "ug/mL"}, {"measurement": "MIC PA14 4.13 (phoQ)", "setting": "[1]; MH pH 7.4, 16–20 h at 37 °C", "result": 8, "unit": "µg/mL"}, {"measurement": "MIC P. aeruginosa PA14 4.13", "setting": "[1]; Table S3, […] MH at pH 8.5", "result": 2, "unit": "µg/mL"}, {"measurement": "MIC P. aeruginosa ZEM-1A, full MH at pH 7.4", "setting": "[2]; CSV, full MH at pH 7.4", "result": 3, "unit": "ug/mL"}, {"measurement": "MIC ZEM-1A", "setting": "[2]; MH pH 7.4, 16–20 h at 37 °C", "result": "2 to 4", "unit": "µg/mL"}, {"measurement": "MIC P. aeruginosa PA14 2P4, […] MH at pH 8.5", "setting": "[3]; CSV, […] MH at pH 8.5", "result": 2, "unit": "ug/mL"}, {"measurement": "MIC P. aeruginosa PA14 2P4, full MH at pH 7.4", "setting": "[3]; CSV, full MH at pH 7.4", "result": 32, "unit": "ug/mL"}, {"measurement": "MIC PA14 2P4 (pmrB)", "setting": "[3]; MH pH 7.4, 16–20 h at 37 °C", "result": 32, "unit": "µg/mL"}, {"measurement": "MIC P. aeruginosa PA14 2P4", "setting": "[3]; Table S3, […] MH at pH 8.5", "result": 2, "unit": "µg/mL"}, {"measurement": "MIC P. aeruginosa PA14 4.18, […] MH at pH 8.5", "setting": "[4]; CSV, […] MH at pH 8.5", "result": 2, "unit": "ug/mL"}, {"measurement": "MIC P. aeruginosa PA14 4.18, full MH at pH 7.4", "setting": "[4]; CSV, full MH at pH 7.4", "result": 32, "unit": "ug/mL"}, {"measurement": "MIC PA14 4.18 (pmrB)", "setting": "[4]; MH pH 7.4, 16–20 h at 37 °C", "result": 32, "unit": "µg/mL"}, {"measurement": "MIC P. aeruginosa PA14 4.18", "setting": "[4]; Table S3, […] MH at pH 8.5", "result": 2, "unit": "µg/mL"}, {"measurement": "MIC P. aeruginosa PAO1, full MH at pH 7.4", "setting": "[5]; PAO1, 4 h, pH 7.4", "result": 4, "unit": "ug/mL"}, {"measurement": "MIC P. aeruginosa PAO1 […] 7.4", "setting": "[5]; Table S2, […] MH, pH 7.4", "result": 2, "unit": "µg/mL"}, {"measurement": "MIC P. aeruginosa PAO1 […] 8.5", "setting": "[5]; Table S2, […] MH, pH 8.5", "result": 2, "unit": "µg/mL"}, {"measurement": "MIC P. aeruginosa PAO1 Full MH 7.4", "setting": "[5]; Table S2, full MH, pH 7.4", "result": 4, "unit": "µg/mL"}, {"measurement": "MIC P. aeruginosa PAO1 Full MH 8.5", "setting": "[5]; Table S2, full MH, pH 8.5", "result": 16, "unit": "µg/mL"}, {"measurement": "MIC E. coli W3110, […] MH at pH 7.4", "setting": "[6]; CSV, […] MH at pH 7.4", "result": 2, "unit": "ug/mL"}, {"measurement": "MIC E. coli W3110, full MH at pH 7.4", "setting": "[6]; CSV, full MH at pH 7.4", "result": 2, "unit": "ug/mL"}, {"measurement": "MIC E. coli W3110 […] 7.4", "setting": "[6]; Table S2, […] MH, pH 7.4", "result": 2, "unit": "µg/mL"}, {"measurement": "MIC E. coli W3110 […] 8.5", "setting": "[6]; Table S2, […] MH, pH 8.5", "result": 1, "unit": "µg/mL"}, {"measurement": "MIC E. coli W3110 Full MH 7.4", "setting": "[6]; Table S2, full MH, pH 7.4", "result": 2, "unit": "µg/mL"}, {"measurement": "MIC E. coli W3110 Full MH 8.5", "setting": "[6]; Table S2, full MH, pH 8.5", "result": 32, "unit": "µg/mL"}, {"measurement": "MIC E. coli W3110 […]", "setting": "[6]; diluted MH ([…] MH, pH 8.5) per Table 1 footnote b, 16–20 h at 37 °C", "result": 2, "unit": "µg/mL"}, {"measurement": "MIC K. pneumoniae NCTC418, full MH at pH 7.4", "setting": "[7]; NCTC418, 4 h, pH 7.4", "result": 8, "unit": "ug/mL"}, {"measurement": "MIC K. pneumoniae NCTC418 […] 7.4", "setting": "[7]; Table S2, […] MH, pH 7.4", "result": 2, "unit": "µg/mL"}, {"measurement": "MIC K. pneumoniae NCTC418 Full MH 7.4", "setting": "[7]; Table S2, full MH, pH 7.4", "result": 8, "unit": "µg/mL"}, {"measurement": "MIC K. pneumoniae NCTC418 Full MH 8.5", "setting": "[7]; Table S2, full MH, pH 8.5", "result": "> 32", "unit": "µg/mL"}, {"measurement": "MIC K. pneumoniae OXA-48, full MH at pH 7.4", "setting": "[8]; CSV, full MH at pH 7.4", "result": 12, "unit": "ug/mL"}, {"measurement": "MIC K. pneumoniae OXA-48", "setting": "[8]; MH pH 7.4, 16–20 h at 37 °C", "result": "8 to 16", "unit": "µg/mL"}, {"measurement": "MIC A. baumannii ATCC19606, full MH at pH 7.4", "setting": "[9]; ATCC19606, 4 h, pH 7.4", "result": 2, "unit": "ug/mL"}, {"measurement": "MIC A. baumannii ATCC19606 […] 7.4", "setting": "[9]; Table S2, […] MH, pH 7.4", "result": 2, "unit": "µg/mL"}, {"measurement": "MIC A. baumannii ATCC19606 Full MH 7.4", "setting": "[9]; Table S2, full MH, pH 7.4", "result": 2, "unit": "µg/mL"}, {"measurement": "MIC A. baumannii ATCC19606 Full MH 8.5", "setting": "[9]; Table S2, full MH, pH 8.5", "result": "> 32", "unit": "µg/mL"}, {"measurement": "MIC S. aureus COL (MRSA) Full", "setting": "[10]; COL, pH 7.4", "result": 8, "unit": "µg/mL"}, {"measurement": "MIC S. aureus COL (MRSA) […] 7.4", "setting": "[10]; Table S2, […] MH, pH 7.4", "result": 2, "unit": "µg/mL"}, {"measurement": "MIC S. aureus COL (MRSA) […] 8.5", "setting": "[10]; Table S2, […] MH, pH 8.5", "result": 2, "unit": "µg/mL"}, {"measurement": "MIC S. aureus COL (MRSA) Full MH 7.4", "setting": "[10]; Table S2, full MH, pH 7.4", "result": "8/32"}, {"measurement": "MIC S. aureus COL (MRSA) Full MH 8.5", "setting": "[10]; Table S2, full MH, pH 8.5", "result": 32, "unit": "µg/mL"}, {"measurement": "MIC P. aeruginosa ZEM9A, full MH at pH 7.4", "setting": "[11]; CSV, full MH at pH 7.4", "result": 16, "unit": "ug/mL"}, {"measurement": "MIC ZEM9A", "setting": "[11]; MH pH 7.4, 16–20 h at 37 °C", "result": 16, "unit": "µg/mL"}, {"measurement": "MIC E. cloacae, full MH at pH 7.4", "setting": "[12]; 4 h", "result": 8, "unit": "ug/mL"}, {"measurement": "MIC E. cloacae", "setting": "[12]", "result": 8, "unit": "µg/mL"}, {"measurement": "MIC S. aureus Newman, full MH at pH 7.4", "setting": "[13]; 4 h, pH 7.4", "result": 32, "unit": "ug/mL"}, {"measurement": "MIC S. aureus Newman", "setting": "[13]; 4 h, pH 8.5", "result": 2, "unit": "µg/mL"}, {"measurement": "MIC S. aureus Newman", "setting": "[13]; pH 7.4", "result": 32, "unit": "µg/mL"}, {"measurement": "IC50", "setting": "[14]", "result": "110 ± 6", "unit": "µM"}]}]}
